Test results taken from paper PMC10235067, “Increased renal elimination of endogenous and synthetic pyrimidine nucleosides in concentrative nucleoside transporter 1 deficient mice” (Nature Communications, 2023).
Where “and” joins values, the source holds several entries; their conditions need not be identical. Equal entries are not always repeated.

What was measured:
[1] = Gemcitabine urine pharmacokinetics (renal excretion) in Slc28a1+/+ and Slc28a1-/- mice; settings: Figure 5 G, H, I, individual mice; for concentration at 5 min / concentration at 10 min / concentration at 15 min / concentration at 30 min / concentration at 60 min / concentration at 120 min / concentration at 240 min: mouse, urine, intravenous, 50 mg/kg, Cp (dFdU)
Procedure: THU was added to the mouse urine samples upon collection and frozen until analysis. […] Five microliters of the diluted samples were transferred to a 96-well autosampler plate then 10 µL of internal standard mixture was added and mixed. […] The plate was then transferred to the 4 °C autosampler for analysis.
The chromatographic separation was performed on a Thermo Accucore aQ 2.6 µm, 100 ×2.1 mm column at 30 °C using a gradient with a 10 µL injection volume. The mobiles phases were 1 mM ammonium acetate in deionized water pH 6.8 and acetonitrile. The total run time was 5.5 min. […] The LC–MS/MS analysis was conducted on a Thermo Vanquish UHPLC with a TSQ Quantiva mass spectrometer equipped with an electrospray ionization source.

[2] = Gemcitabine plasma pharmacokinetics in Slc28a1+/+ and Slc28a1-/- mice
Procedure: To collect blood, a 5 mm lancet was used to apply pressure to the submandibular vein and release blood flow. For retro-orbital collection, mice were anesthetized with 3% isoflurane in oxygen, and the blood was collected directly into heparinized capillary tubes by applying slight pressure to the medial canthus of the eye. Cardiac puncture was performed as the final collection method by first euthanizing the mice in a CO2 chamber and immediately performing posterior cardiac puncture by inserting a 27 G needle with a 1 ml syringe attachment into the heart. Once blood collection was completed, gentle pressure was applied to the blood collection area using gauze to stop the bleeding. Thirty microliters of blood was collected into heparinized capillary tubes at each time point, transferred into prelabeled 0.5 ml microcentrifuge tubes containing THU (10 µg/ml; final concentration), and immediately processed and snap-frozen following procedures outlined in the “Gemcitabine plasma pharmacokinetics” methods section.
Gemcitabine and dFdU plasma concentrations were measured using a modified version of our previously published UHPLC–MS/MS method for nucleosides[74] […] Noncompartmental pharmacokinetic parameters (Cmax, Tmax, AUC, CL, T1/2, etc.) were calculated using WinNonlin 6.2 software (Pharsight; Mountain View, CA). […] The Cmax and Tmax were obtained from the concentration-time curve. The AUC was calculated according to the linear trapezoidal rule up to the last time point with a measurable concentration of the analyte of interest. Significant differences between Slc28a1^+/+ and Slc28a1^−/− mouse pharmacokinetic parameters (p < 0.05) were evaluated with an unpaired two-sided Student’s t-test.
The resulting supernatant was evaporated to dryness in a SpeedVac, and the remaining residue was reconstituted in mobile phase A for subsequent analysis. […] Subsequent processing was identical to that for the plasma and urine samples.
Briefly, the analysis was performed on an Imtakt Schzero SM C18 column, 2.1 × 100 mm, 3.0 µm particle size. The eluents used consisted of mobile phase A consisting of 50 mM ammonium formate:50 mM ammonium hydroxide (9:1, v/v) (pH = 8.6) and mobile phase B consisting of 50 mM ammonium formate:50 mM ammonium hydroxide (9:1, v/v):ACN (80:20, v/v) (pH = 8.6). […] The injection volume was 10 μL, and the autosampler temperature was set at 4 °C throughout the analysis.
The Waters Triple Quadrupole Mass Spectrometer with an ESI source was operated in negative and positive ion mode at a spray voltage of 2.5 kV, capillary temperature of 150 °C, and vaporizer temperature of 250 °C. Compound optimization was performed manually using the MassLynx 4.1 Software AutoTune Wizard (Waters, Milford, MA) by infusion into the mass spectrometer using a T-connector. […] Analyze concentrations were determined and analyzed using MassLynx Mass Spectrometry Software (Waters; Milford, MA).

[3] = dFdU in plasma, KO mice, iv gemcitabine 50mg/kg, per mouse

O=c1ccn([C@@H]2O[C@H](CO)[C@@H](O)C2(F)F)c(=O)[nH]1 [dFdU, 2′,2′-difluorodeoxyuridine]
Cp (dFdU) ([1]; KO mice, 5 Minutes): 317.288 ng/mL and 341.288 ng/mL and 338.288 ng/mL and 263.288 ng/mL | Cp (dFdU) ([1]; KO mice, 10 Minutes): 227.479 ng/mL and 269.479 ng/mL and 242.479 ng/mL and 273.479 ng/mL and 275.479 ng/mL | Cp (dFdU) ([1]; KO mice, 15 Minutes): 331.541 ng/mL and 373.541 ng/mL and 346.541 ng/mL and 377.541 ng/mL and 379.541 ng/mL | Cp (dFdU) ([1]; KO mice, 30 Minutes): 322.048 ng/mL and 364.048 ng/mL and 337.048 ng/mL and 368.048 ng/mL and 370.048 ng/mL | Cp (dFdU) ([1]; KO mice, 60 Minutes): 338.37 ng/mL and 380.37 ng/mL and 353.37 ng/mL and 384.37 ng/mL and 386.37 ng/mL | Cp (dFdU) ([1]; KO mice, 120 Minutes): 342.398 ng/mL and 384.398 ng/mL and 357.398 ng/mL and 388.398 ng/mL and 390.398 ng/mL | Cp (dFdU) ([1]; KO mice, 240 Minutes): 359.089 ng/mL and 401.089 ng/mL and 374.089 ng/mL and 405.089 ng/mL and 407.089 ng/mL | Cp (dFdU) ([1]; WT mice, 5 Minutes): 390.036 ng/mL and 363.036 ng/mL and 387.036 ng/mL and 384.036 ng/mL and 309.036 ng/mL | Cp (dFdU) ([1]; WT mice, 10 Minutes): 317.618 ng/mL and 359.618 ng/mL and 332.618 ng/mL and 363.618 ng/mL and 365.618 ng/mL | Cp (dFdU) ([1]; WT mice, 15 Minutes): 319.343 ng/mL and 361.343 ng/mL and 334.343 ng/mL and 365.343 ng/mL and 367.343 ng/mL | Cp (dFdU) ([1]; WT mice, 30 Minutes): 316.265 ng/mL and 358.265 ng/mL and 331.265 ng/mL and 362.265 ng/mL and 364.265 ng/mL | Cp (dFdU) ([1]; WT mice, 60 Minutes): 316.849 ng/mL and 358.849 ng/mL and 331.849 ng/mL and 362.849 ng/mL and 364.849 ng/mL | Cp (dFdU) ([1]; WT mice, 120 Minutes): 320.376 ng/mL and 362.376 ng/mL and 335.376 ng/mL and 366.376 ng/mL and 368.376 ng/mL | Cp (dFdU) ([1]; WT mice, 240 Minutes): 471.043 ng/mL and 459.043 ng/mL and 432.043 ng/mL and 463.043 ng/mL and 465.043 ng/mL | concentration at 5 min ([1]; KO mice, 5 Minutes): 344 ng/mL | concentration at 10 min ([1]; KO mice, 10 Minutes): 239 ng/mL | concentration at 15 min ([1]; KO mice, 15 Minutes): 344 ng/mL | concentration at 30 min ([1]; KO mice, 30 Minutes): 334 ng/mL | concentration at 60 min ([1]; KO mice, 60 Minutes): 350 ng/mL | concentration at 120 min ([1]; KO mice, 120 Minutes): 354 ng/mL | concentration at 240 min ([1]; KO mice, 240 Minutes): 371 ng/mL | concentration at 5 min ([1]; WT mice, 5 Minutes): 328 ng/mL | concentration at 10 min ([1]; WT mice, 10 Minutes): 330 ng/mL | concentration at 15 min ([1]; WT mice, 15 Minutes): 331 ng/mL | concentration at 30 min ([1]; WT mice, 30 Minutes): 328 ng/mL | concentration at 60 min ([1]; WT mice, 60 Minutes): 329 ng/mL | concentration at 120 min ([1]; WT mice, 120 Minutes): 332 ng/mL | concentration at 240 min ([1]; WT mice, 240 Minutes): 429 ng/mL | AUC (Last) ([2]; Slc28a1-/- mice, plasma, single i.v. dFdC 50 mg/kg): 1453.8 ± 31.9 ng x min/mL | AUCINF_D_obs [2, 3]: 145.293 kg·ng·min/mL/mg and 247.451 kg·ng·min/mL/mg and 151.268 kg·ng·min/mL/mg | AUCINF_D_pred [2, 3]: 145.176 kg·ng·min/mL/mg and 248.596 kg·ng·min/mL/mg and 151.889 kg·ng·min/mL/mg | AUCINF_obs [2, 3]: 12372.5 ng·min/mL and 7563.4 ng·min/mL | AUCINF_pred [2, 3]: 12429.8 ng·min/mL and 7594.45 ng·min/mL | AUC_%Back_Ext_obs [2, 3]: 27.8053% and 16.048% and 18.9747% | AUC_%Back_Ext_pred [2, 3]: 27.8277% and 15.9741% and 18.8972% | AUC_%Extrap_obs [2, 3]: 3.511% and 11.2661% and 5.257% | AUC_%Extrap_pred [2, 3]: 3.433% and 11.6749% and 5.644% | AUCall [2, 3]: 7482.64 ng·min/mL and 12659.7 ng·min/mL and 8852.13 ng·min/mL and 5047.42 ng·min/mL and 7806.56 ng·min/mL and 6947.11 ng·min/mL | AUClast [2, 3]: 7009.6 ng·min/mL and 10978.6 ng·min/mL and 5995.89 ng·min/mL and 3337.67 ng·min/mL and 7165.79 ng·min/mL and 6415.86 ng·min/mL | AUClast_D [2, 3]: 140.192 kg·ng·min/mL/mg and 219.572 kg·ng·min/mL/mg and 119.918 kg·ng·min/mL/mg and 66.7534 kg·ng·min/mL/mg and 143.316 kg·ng·min/mL/mg and 128.317 kg·ng·min/mL/mg | AUMCINF_obs [2, 3]: 73315.1 min*min*ng/mL and 188787 min*min*ng/mL and 94928.9 min*min*ng/mL | AUMCINF_pred [2, 3]: 73092.7 min*min*ng/mL and 191216 min*min*ng/mL and 96149.2 min*min*ng/mL | AUMC_%Extrap_obs [2, 3]: 13.2491% and 31.3337% and 16.4642% | AUMC_%Extrap_pred [2, 3]: 12.9851% and 32.2062% and 17.5245% | AUMClast [2, 3]: 63601.5 min*min*ng/mL and 129633 min*min*ng/mL and 47032.5 min*min*ng/mL and 25446 min*min*ng/mL and 79299.6 min*min*ng/mL and 72737 min*min*ng/mL | Cl_pred [2, 3]: 413.291 L/h/kg and 241.36 L/h/kg and 395.026 L/h/kg | Clast [2, 3]: 31.5362 ng/mL and 112.074 ng/mL and 380.831 ng/mL and 227.966 ng/mL and 42.718 ng/mL and 35.4167 ng/mL | Clast_pred [2, 3]: 30.8142 ng/mL and 116.678 ng/mL and 46.0533 ng/mL | Cmax [2, 3]: 399.844 ng/mL and 516.311 ng/mL and 478.159 ng/mL and 230.143 ng/mL and 315.127 ng/mL and 303.44 ng/mL | Cmax_D [2, 3]: 7.997 kg·ng/mL/mg and 10.3262 kg·ng/mL/mg and 9.563 kg·ng/mL/mg and 4.603 kg·ng/mL/mg and 6.303 kg·ng/mL/mg and 6.069 kg·ng/mL/mg | HL_Lambda_z [2, 3]: 5.606 min and 8.621 min and 6.452 min | Lambda_z [2, 3]: 0.0804 min⁻¹ and 0.1074 min⁻¹ | MRTINF_obs [2, 3]: 15.2585 min and 12.5511 min | MRTINF_pred [2, 3]: 15.3837 min and 12.6605 min | MRTlast [2, 3]: 11.8078 min and 7.844 min and 7.624 min and 11.0664 min and 11.3371 min | Tlast [2, 3]: 30 min and 15 min | Tmax [2, 3]: 5 min and 10 min and 15 min
